Assay results from publication PMC9963373, “Rationalizing the Binding Modes of PET Radiotracers Targeting the Norepinephrine Transporter” (Pharmaceutics, 2023).

What was measured:
NET [1] = test: PET imaging in non-human primates with and without desipramine blockade; assay type: in vivo, rhesus macaques; conditions: NHPs, n = 2; specificity proven by desipramine 1 mg/kg i.v. 10 min before tracer
From the text: The experimental protocols were approved by the Animal Ethics Committee of the National Cerebral and Cardiovascular Center, Research Institute, Osaka, Japan (approval number 18019) and conducted in strict accordance with the Guide for the Care and Use of Laboratory Animals published by the US National Institutes of Health and the ARRIVE guidelines. Anesthesia was induced in male Wistar rats (n = 3–6 for each radiotracer, weighing 200–250 g on average, Charles River Laboratories, Research Models and Services, Germany GmbH, Sulzfeld, Germany) by using 5% isoflurane and maintained during the whole experiment with 2% isoflurane. […] After a tracheal cannula was inserted, 1.5% sevoflurane (SEVOFLURANE Inhalation Solution, Pfizer Japan Inc., Tokyo, Japan) vaporized with 100% oxygen was inhaled, and the tidal volume and respiratory rate of the ventilator were monitored and maintained in the normal range throughout the imaging sessions with an anesthesia workstation (Apollo®, Drägerwerk AG & Co. KGaA, Lübeck, Germany).
Preliminary PET imaging of [^18F]AF78(F) in rodents (n = 2) and NHPs (n = 2) was obtained according to a previously described protocol. […] Following weight and decay correction of the tissue counts, the heart-to-blood (H/B) ratios were calculated. […]

[2] = Rat biodistribution study, heart-to-blood ratio of fluorine-18-labeled tracers; assay type: in vivo; conditions: male Wistar rats, 10 min after tail vein administration of fluorine-18-labeled tracer (1-2 MBq), n = 3-6
From the text: The experimental protocols were approved by the Animal Ethics Committee of the National Cerebral and Cardiovascular Center, Research Institute, Osaka, Japan (approval number 18019) and conducted in strict accordance with the Guide for the Care and Use of Laboratory Animals published by the US National Institutes of Health and the ARRIVE guidelines. Anesthesia was induced in male Wistar rats (n = 3–6 for each radiotracer, weighing 200–250 g on average, Charles River Laboratories, Research Models and Services, Germany GmbH, Sulzfeld, Germany) by using 5% isoflurane and maintained during the whole experiment with 2% isoflurane. Large animal PET imaging was performed on rhesus macaques (n = 2, weighing 3.9–4.2 kg, Primate Research Institute Kyoto University, Aichi, Japan). The induction of anesthesia in non-human primates (NHPs) was conducted by intramuscular injection of ketamine (1.5 mg/kg) and xylazine (0.6 mg/kg) to allow animal preparation and handling. After a tracheal cannula was inserted, 1.5% sevoflurane (SEVOFLURANE Inhalation Solution, Pfizer Japan Inc., Tokyo, Japan) vaporized with 100% oxygen was inhaled, and the tidal volume and respiratory rate of the ventilator were monitored and maintained in the normal range throughout the imaging sessions with an anesthesia workstation (Apollo®, Drägerwerk AG & Co. KGaA, Lübeck, Germany).
(§1) Preliminary PET imaging of [^18F]AF78(F) in rodents (n = 2) and NHPs (n = 2) was obtained according to a previously described protocol. For the rat biodistribution studies (n = 3–6 for each tracer), radiotracers (1–2 MBq) were administered via the tail vein. Ten minutes after radiotracer administration, the animals were euthanized. The organs of interest were harvested for tissue counting with a γ-counter (2480 Automatic Gamma Counter WIZARD^2, PerkinElmer LAS GmbH, Rodgau, Germany). Following weight and decay correction of the tissue counts, the heart-to-blood (H/B) ratios were calculated. A detailed experimental description can be found in the Supplementary Material. […]
PET Imaging and Biodistribution Study […]
Barbara, CA, US). For the rat biodistribution studies, radiotracers (1–2 MBq) were administered via the tail vein. Ten minutes after radiotracer administration, the animals were euthanized. The organs of interest were harvested for tissue counting with a γ-counter (2480 Automatic Gamma Counter WIZARD2, PerkinElmer, Rodgau, Germany). Following weight and decay correction of the tissue counts, the heart-to-blood ratios were calculated. NHPs (n = 2) were anesthetized during the imaging study and studied on a clinical PET scanner (PCA-2000A, Toshiba Medical Systems Corporation, Tochigi, Japan). After a 5 min transmission scan and an intravenous injection of the […]
and 300 s × 11) was started. […]

[3] = PET/CT imaging in healthy rats; assay type: in vivo; conditions: n = 2, 10-20 MBq via tail vein
Protocol: as §1
days. IC50 values were determined using nonlinear regression log(inhibitor) vs. normalized response in GraphPad Prism 8.4.3.
PET Imaging and Biodistribution Study
PET imaging of [18F]AF78(F) in rodents (n = 2) was obtained using a dedicated small animal PET system (microPET Focus 120, Siemens, Germany). […]
initiated with acquisition in list-mode format. […] Following weight and decay correction of the tissue counts, the heart-to-blood ratios were calculated. […]
injected 10 min before tracer administration, after which the PET scan started immediately. […] The obtained PET images were analyzed with the public domain tool AMIDE imaging software (A Medical Imaging Data Examiner, version 1.01).

NET [4] = molecular target: T1, NET (Homo sapiens, UniProt P23975); test: Competitive cellular uptake assay against [3H]NE uptake in SK-N-SH cells
From the text: It should be noted that the NET affinities of the tested compounds are expressed as IC50 in the current manuscript instead of the dissociation constant Kd. First, because all the tested compounds are substrates of NET that can be transported, they share the same binding site. […] Therefore, the IC50 value in the current study is considered equal to Kd without additional correction.
Competitive Cellular Uptake Studies
were cultivated according to the instructions from the supplier (Sigma-Aldrich Chemie GmbH,
Munich, Germany). One day before the competitive assay, the cells were seeded in 24-well plates
at a density of 1 × 10^5 cells/well and incubated in 0.5 mL of Eagle’s minimum essential medium
(EMEM) at 37 °C overnight. The medium was removed, and the cells were washed with 0.5 mL of
Dulbecco’s modified Eagle’s medium (DMEM) with low glucose containing 0.1% bovine serum
albumin (BSA). After washing, DMEM/0.1% BSA (300 µL) was added along with 50 µL of pargyline
presence of pyrogallol (20 µM final concentration, catechol-O-methyl transferase inhibitor) [1] and
pargyline (100 µM final concentration, monoamine oxidase inhibitor) [2], 50 µL of working solution
GBq/mmol, NET678250UC, PerkinElmer LAS GmbH, Germany) in DMEM/0.1% BSA together with
50 µL of the test compounds (desipramine, MIBG, HED and cold re ferences, each at different
incubation volume. The addition of the inhibitors of both enzymes involved in the natural
time. The plates were incubated at 37°C for 60 min. The cells were then washed with ice-cold PBS
(2 × 0.5 mL) followed by the addition of NaOH solution (0.1 N, 500 μL) and collection of the cell
lysates. Cell lysates (140 µL) were mixed with 1.8 mL of scintillation cocktail (Hionic-Fluor,
PerkinElmer, Rodgau, Germany) and radioactivity was measured in a liquid scintillation analyzer
All experimental data are presented as mean
± SD, with individual numbers measured in triplicate in experiment performed on 2–3 separate

NET [5] = molecular target: T1, NET; parameters: Human neuroblastoma cell line SK-N-SH from metastatic bone marrow stably expressing NET; host or cells: SK-N-SH human neuroblastoma cells; method as in PMID 23306137; conditions: NE-NET; read-out: Michaelis constant Km; cited from earlier work

T1 sequence (P23975 whole entry): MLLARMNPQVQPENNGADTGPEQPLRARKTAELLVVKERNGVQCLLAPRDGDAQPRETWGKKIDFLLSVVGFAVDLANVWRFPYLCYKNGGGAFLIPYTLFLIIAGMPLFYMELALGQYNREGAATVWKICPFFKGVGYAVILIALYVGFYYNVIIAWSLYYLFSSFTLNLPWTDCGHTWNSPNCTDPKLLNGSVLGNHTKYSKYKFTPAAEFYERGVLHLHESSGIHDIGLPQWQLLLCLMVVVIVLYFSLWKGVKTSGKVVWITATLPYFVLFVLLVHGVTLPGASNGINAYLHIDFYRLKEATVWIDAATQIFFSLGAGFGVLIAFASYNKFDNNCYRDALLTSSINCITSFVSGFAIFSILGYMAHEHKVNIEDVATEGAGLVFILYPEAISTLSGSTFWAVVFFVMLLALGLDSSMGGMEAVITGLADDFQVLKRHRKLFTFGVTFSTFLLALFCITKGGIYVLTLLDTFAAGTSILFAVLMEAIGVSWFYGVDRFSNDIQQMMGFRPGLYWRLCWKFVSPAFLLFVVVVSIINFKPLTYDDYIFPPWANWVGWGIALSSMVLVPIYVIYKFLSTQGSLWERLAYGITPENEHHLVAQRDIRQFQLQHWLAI

Row | Structure (SMILES) | heart-to-blood (H/B) ratio [2] | IC50 (NET [4]) [µM] | other results
1 | N=C(N)NCCc1ccc(OCCCF)c(F)c1 [AF78(F)] | 13.2 ± 1.2 |  | uptake in the heart (PET) (NET [1]): distinct NET-mediated uptake in the heart; systemic distribution of the radiotracer (PET/CT) [3]: homogenous distribution throughout the left ventricular wall
2 | N=C(N)NCCc1ccc(OCCCF)c(Br)c1 [AF78(Br)] | 8.7 ± 1.4 | 3.32 ± 0.72 | 
3 | N=C(N)NCCc1ccc(OCCCF)c(Cl)c1 [AF78(Cl)] | 10.4 ± 0.4 | 0.94 ± 0.28 | 
4 | NC[C@H](O)c1ccc(O)c(O)c1 [NE, norepinephrine] |  |  | Km (NET [5]): 0.28 ± 0.03 µM
5 | N=C(N)NCCc1ccc(OCCCF)cc1 [AF78(H)] |  | 4.17 ± 0.92 | 
6 | N=C(N)NCCc1ccc(OCCCF)c(O)c1 [AF78(OH)] |  | 22.7 ± 3.58 | 
7 | N=C(N)NCCc1ccc(OCCCF)c(I)c1 [AF78(I)] | 5.9 ± 0.4 | 6.51 ± 3.32 | fold less potent than AF78(F) (NET [4]; ratio of NET affinities in the competitive cellular uptake assay): 15 fold
